Measurements as given in publication PMC9313110, “Modulating the Fibrillization of Parathyroid-Hormone (PTH) Peptides: Azo-Switches as Reversible and Catalytic Entities” (Biomedicines, 2022).
Converted amounts (≈) assume the structure as drawn. Starred links: 1 amine or outer side, 2 acyl side, 3 side chain; linkers in the order of their positions; H or OH if unused. Non-standard residues stand in square brackets, D forms with d. Residues, ends and D or L forms follow the SMILES beside them. X3 = O=C(c1cccc(N=Nc2ccc(CN[*:1])cc2)c1)[*:2]

Legend:
[1] = in the dark; ref [41],[42]; cited from earlier work
[2] = ThT-monitored fibrillization assay of the pure peptides; type: physicochemical; settings: pure peptide 100 μM; 50 μM ThT; 50 mM Na2HPO4, pH 7.4; 37 °C; fluorescence ex 460 nm/em 485 nm; average of triplets
Method: ThT-monitored fibrillization assays of artificial peptides and mixtures with PTH25–37 were investigated by fluorescence intensity measurements using thioflavin T (ThT) as fluorescent dye. Lyophilized peptides were dissolved in 50 mM Na2HPO4 buffer solution with a pH value of 7.4 in a concentration of 2 mg/mL and kept on ice for the next steps. The samples were centrifuged at 13,000× […] for 10 s and the concentrations were determined with a JASCO V-660 absorbance spectrometer (JASCO, Pfungstadt, Germany; PTH25–37 by absorbance at 205 nm and the molar extinction coefficient of 49,310 cm^−1M^−1; trans-AzoPTH25–37 by absorbance at 327 nm and the molar extinction coefficient of 13,000 cm^−1M^−1). Cis-AzoPTH25–37 was produced as described before. […] The fluorescence intensity was monitored at 37 °C using a BMG FLUOStar Omega multi-mode plate reader (BMG LABTECH, Ortenberg, Germany) using fluorescence excitation and emission wavelengths at 460 nm and 485 nm, respectively. […]
In order to determine the kinetics of fibril formation of both modified AzoPTH25–37 isomers a thioflavin T (ThT)-monitored fibrillization assay was conducted and compared to PTH25–37. […] Causing a large red shift of fluorescence excitation of ThT, which in turn enables the selective excitation of amyloid fibril-bound ThT and therefore the in situ observation of fibril formation. […]

[3] = Maximum solubility in fibrillization buffer; type: physicochemical; settings: 50 mM Na2HPO4 buffer (pH 7.4), UV-Vis absorption (ε = 49310 M-1cm-1 at 205 nm for PTH25-37, ε = 13000 M-1cm-1 at 327 nm for 3,4'-AMPB peptides)
Method: ThT-monitored fibrillization assays of artificial peptides and mixtures with PTH25–37 were investigated by fluorescence intensity measurements using thioflavin T (ThT) as fluorescent dye. Lyophilized peptides were dissolved in 50 mM Na2HPO4 buffer solution with a pH value of 7.4 in a concentration of 2 mg/mL and kept on ice for the next steps. The samples were centrifuged at 13,000× […] for 10 s and the concentrations were determined with a JASCO V-660 absorbance spectrometer (JASCO, Pfungstadt, Germany; PTH25–37 by absorbance at 205 nm and the molar extinction coefficient of 49,310 cm^−1M^−1; trans-AzoPTH25–37 by absorbance at 327 nm and the molar extinction coefficient of 13,000 cm^−1M^−1). Cis-AzoPTH25–37 was produced as described before. The solutions were centrifuged at 10,000 rpm for 1 h at 4 °C, the supernatant was transferred to another tube. The protein solutions were mixed in the desired ration and diluted with 50 mM Na2HPO4 buffer (pH 7.4) to obtain final concentrations of 0/100 μM PTH25–37, 50 μM ThT, and 0/10/20/50/100 μM AzoPTH25–37. For each sample, a total volume of 480 μL was prepared and 3 × 150 μL were transferred to a medium binding 96-well plate (Greiner Bio-One, Kremsmünster, Austria). The plate was sealed with a microplate cover. The fluorescence intensity was monitored at 37 °C using a BMG FLUOStar Omega multi-mode plate reader (BMG LABTECH, Ortenberg, Germany) using fluorescence excitation and emission wavelengths at 460 nm and 485 nm, respectively. One measurement cycle of 5 min consisted of double-orbital shaking for 150 s and incubating for 150 s.
2. Peptide Characterisation
Table S1: Primary sequence and solubility in 50 mM Na2PO4 buffer (pH 7.4) of peptides AzoPTH25-37 and SP1-
peptide primary sequencea solubility [μM]b
a Azo = 3,4’-AMPB; b maximum solubility was determined via UV-Vis absorption spectroscopy
2.2. HPLC- and MALDI-ToF-data
Figure S1: (A) HPLC-trace of AzoPTH25-37 (cis-isomer at 5.353, trans-isomer at 5.530). (B) MALDI-spectrum

[4] = type: physicochemical
Text: We first studied the photophysical properties of the cis-trans-isomerization of AzoPTH25–37 (Figure 1b) by UV/Vis spectroscopy and HPLC analysis in pure water in order to minimize effects of a potential self-assembly and to quantify the generated amounts of the respective cis/trans-modified peptides before and after photoswitching. The UV/Vis spectra for the pure isomers (Figure S6) were separated from the spectra of trans-enriched AzoPTH25–37 in the thermodynamically stable state after synthesis and in the cis-enriched photostationary state (PSS, Figure 3) with Wolfram Mathematica 12.2. […] Both isomers display two isobestic points at 278 nm and 388 nm. They represent in the thermodynamically stable state a cis-trans ratio of 3:97. Under irradiation with UV light (340 nm), the cis-content could be increased of up to 82% in the cis-enriched PSS. Visible light (405 nm) yields 76% of the trans-isomer in the trans-enriched PSS via the back reaction. The difference of the trans-content between the trans-enriched PSS at 405 nm and the thermodynamically stable state arises from the overlapping of the n → π* transitions of both isomers at this wavelength. The rate of thermal cis-to-trans isomerization of AzoPTH25–37 follows first-order kinetics, and was determined by monitoring the increase of the π → π* absorption band at 327 nm (Figure S7) via time-dependent UV measurements.
2.3. […]

Row | SMILES | solubility (maximum solubility) [3] [µM] | further results
1 | NCc1ccc(N=Nc2cccc(C(=O)O)c2)cc1 [3,4′-AMPB, 3-{[(4-aminomethyl)phenyl]diazenyl}benzoic acid] |  | half-life time of thermal back-isomerization of the photoswitch [1]: more than 20 h
2 | CC(C)C[C@H](NC(=O)[C@H](C)NC(=O)[C@@H](NC(=O)[C@H](Cc1ccccc1)NC(=O)[C@H](CC(N)=O)NC(=O)[C@H](Cc1c[nH]cn1)NC(=O)[C@@H](NC(=O)[C@H](CC(=O)O)NC(=O)[C@H](CCC(N)=O)NC(=O)[C@H](CC(C)C)NC(=O)[C@H](CCCCN)NC(=O)[C@H](CCCCN)NC(=O)[C@@H](N)CCCNC(=N)N)C(C)C)C(C)C)C(=O)O [PTH25–37] (H-RKKLQDVHNFVAL-OH) | > 1000 | tchar (time at which 50% of the maximum fluorescence was reached) [2]: 10.9 h; tlag (lag time, time before an increase in the fluorescence signal occurs) [2]: 7.2 h
3 | CC(C)C[C@H](NC(=O)[C@H](C)NC(=O)[C@@H](NC(=O)[C@H](Cc1ccccc1)NC(=O)[C@H](CC(N)=O)NC(=O)[C@H](Cc1c[nH]cn1)NC(=O)c1cccc(N=Nc2ccc(CNC(=O)[C@H](CCC(N)=O)NC(=O)[C@H](CC(C)C)NC(=O)[C@H](CCCCN)NC(=O)[C@H](CCCCN)NC(=O)[C@@H](N)CCCNC(=N)N)cc2)c1)C(C)C)C(=O)O [SP4] (H-RKKLQ[X3]HNFVAL-OH) | 25 (≈ 39.8 µg/mL) | 
4 | CC(C)C[C@H](NC(=O)[C@H](C)NC(=O)[C@@H](NC(=O)[C@H](Cc1ccccc1)NC(=O)[C@H](CC(N)=O)NC(=O)[C@H](Cc1c[nH]cn1)NC(=O)[C@@H](NC(=O)c1cccc(N=Nc2ccc(CNC(=O)[C@H](CCC(N)=O)NC(=O)[C@H](CC(C)C)NC(=O)[C@H](CCCCN)NC(=O)[C@H](CCCCN)NC(=O)[C@@H](N)CCCNC(=N)N)cc2)c1)C(C)C)C(C)C)C(=O)O [SP3] (H-RKKLQ[X3]VHNFVAL-OH) | 35 (≈ 59.2 µg/mL) | 
5 | CC(C)C[C@H](NC(=O)[C@H](C)NC(=O)[C@@H](NC(=O)[C@H](Cc1ccccc1)NC(=O)[C@H](CC(N)=O)NC(=O)[C@H](Cc1c[nH]cn1)NC(=O)c1cccc(N=Nc2ccc(CNC(=O)[C@H](CC(=O)O)NC(=O)[C@H](CCC(N)=O)NC(=O)[C@H](CC(C)C)NC(=O)[C@H](CCCCN)NC(=O)[C@H](CCCCN)NC(=O)[C@@H](N)CCCNC(=N)N)cc2)c1)C(C)C)C(=O)O [AzoPTH25–37] (H-RKKLQD[X3]HNFVAL-OH) | 240 (≈ 409 µg/mL) | photostability in the dark [4]: more than 20 h; solubility (maximum solubility) ([3]; listed as AzoPTH25-37): 250 µM (≈ 426 µg/mL)
6 | CC(C)C[C@H](NC(=O)[C@H](C)NC(=O)[C@@H](NC(=O)[C@H](Cc1ccccc1)NC(=O)[C@H](CC(N)=O)NC(=O)[C@H](Cc1c[nH]cn1)NC(=O)c1cccc(N=Nc2ccc(CNC(=O)[C@@H](NC(=O)[C@H](CC(=O)O)NC(=O)[C@H](CCC(N)=O)NC(=O)[C@H](CC(C)C)NC(=O)[C@H](CCCCN)NC(=O)[C@H](CCCCN)NC(=O)[C@@H](N)CCCNC(=N)N)C(C)C)cc2)c1)C(C)C)C(=O)O [SP2] (H-RKKLQDV[X3]HNFVAL-OH) | 55 (≈ 99.3 µg/mL) | 
7 | CC(C)C[C@H](NC(=O)[C@H](C)NC(=O)[C@@H](NC(=O)[C@H](Cc1ccccc1)NC(=O)[C@H](CC(N)=O)NC(=O)[C@H](Cc1c[nH]cn1)NC(=O)[C@@H](NC(=O)c1cccc(N=Nc2ccc(CNC(=O)[C@H](CC(=O)O)NC(=O)[C@H](CCC(N)=O)NC(=O)[C@H](CC(C)C)NC(=O)[C@H](CCCCN)NC(=O)[C@H](CCCCN)NC(=O)[C@@H](N)CCCNC(=N)N)cc2)c1)C(C)C)C(C)C)C(=O)O [SP1] (H-RKKLQD[X3]VHNFVAL-OH) | 60 (≈ 108 µg/mL) | 
